# From PubChem BioAssay (NCI)
#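 Assay format: 96-well plates, 48-hour exposure. TGI denotes the concentration required for complete inhibition of growth.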
# Experiments:
# Assay in all cases: NCI anticancer screen, dose series, 48 h
# 786-0 renal = system: 786-0 renal
# A498 renal = system: A498 renal
# A549 NSCLC = system: A549 NSCLC
# ACHN renal = system: ACHN renal
# CCRF-CEM leukemia = system: CCRF-CEM leukemia
# COLO 205 colon = system: COLO 205 colon
# DU-145 prostate = system: DU-145 prostate
# EKVX NSCLC = system: EKVX NSCLC
# HCC-2998 colon = system: HCC-2998 colon
# HCT-116 colon = system: HCT-116 colon
# HCT-15 colon = system: HCT-15 colon
# HL-60(TB) leukemia = system: HL-60(TB) leukemia
# HOP-62 NSCLC = system: HOP-62 NSCLC
# HOP-92 NSCLC = system: HOP-92 NSCLC
# HT29 colon = system: HT29 colon
# IGROV1 ovarian = system: IGROV1 ovarian
# K-562 leukemia = system: K-562 leukemia
# KM12 colon = system: KM12 colon
# LOX IMVI melanoma = system: LOX IMVI melanoma
# M14 melanoma = system: M14 melanoma
# MALME-3M melanoma = system: MALME-3M melanoma
# MCF7 breast = system: MCF7 breast
# MDA-MB-231 breast = system: MDA-MB-231 breast
# MDA-MB-435 = system: MDA-MB-435
# MDA-N = system: MDA-N
# MOLT-4 leukemia = system: MOLT-4 leukemia
# NCI-H226 lung = system: NCI-H226 lung
# NCI-H23 lung = system: NCI-H23 lung
# NCI-H460 lung = system: NCI-H460 lung
# NCI-H522 lung = system: NCI-H522 lung
# NCI/ADR-RES ovarian = system: NCI/ADR-RES ovarian
# OVCAR-3 ovarian = system: OVCAR-3 ovarian
# OVCAR-4 ovarian = system: OVCAR-4 ovarian
# OVCAR-5 ovarian = system: OVCAR-5 ovarian
# OVCAR-8 ovarian = system: OVCAR-8 ovarian
# PC-3 prostate = system: PC-3 prostate
# RPMI-8226 leukemia = system: RPMI-8226 leukemia
# RXF 393 renal = system: RXF 393 renal
# SF-268 CNS = system: SF-268 CNS
# SF-295 CNS = system: SF-295 CNS
# SF-539 CNS = system: SF-539 CNS
# SK-MEL-2 melanoma = system: SK-MEL-2 melanoma
# SK-MEL-28 melanoma = system: SK-MEL-28 melanoma
# SK-MEL-5 melanoma = system: SK-MEL-5 melanoma
# SK-OV-3 ovarian = system: SK-OV-3 ovarian
# SN12C renal = system: SN12C renal
# SNB-19 CNS = system: SNB-19 CNS
# SNB-75 CNS = system: SNB-75 CNS
# SR leukemia = system: SR leukemia
# SW-620 colon = system: SW-620 colon
# T-47D breast = system: T-47D breast
# TK-10 renal = system: TK-10 renal
# U251 CNS = system: U251 CNS
# UACC-62 melanoma = system: UACC-62 melanoma
# UO-31 renal = system: UO-31 renal
# CAKI-1 renal = system: CAKI-1 renal
# UACC-257 melanoma = system: UACC-257 melanoma
smiles,measurement,setting,value
CC1=NC(C)(C)N(O)C1(C)C,TGI,786-0 renal,> 100 µM
same,TGI,A498 renal,> 100 µM
same,TGI,A549 NSCLC,> 100 µM
same,TGI,ACHN renal,> 100 µM
same,TGI,CCRF-CEM leukemia,> 100 µM
same,TGI,COLO 205 colon,> 100 µM
same,TGI,DU-145 prostate,> 100 µM
same,TGI,EKVX NSCLC,> 100 µM
same,TGI,HCC-2998 colon,> 100 µM
same,TGI,HCT-116 colon,> 100 µM
same,TGI,HCT-15 colon,> 100 µM
same,TGI,HL-60(TB) leukemia,> 100 µM
same,TGI,HOP-62 NSCLC,> 100 µM
same,TGI,HOP-92 NSCLC,> 100 µM
same,TGI,HT29 colon,> 100 µM
same,TGI,IGROV1 ovarian,> 100 µM
same,TGI,K-562 leukemia,> 100 µM
same,TGI,KM12 colon,> 100 µM
same,TGI,LOX IMVI melanoma,> 100 µM
same,TGI,M14 melanoma,> 100 µM
same,TGI,MALME-3M melanoma,> 100 µM
same,TGI,MCF7 breast,> 100 µM
same,TGI,MDA-MB-231 breast,> 100 µM
same,TGI,MDA-MB-435,> 100 µM
same,TGI,MDA-N,> 100 µM
same,TGI,MOLT-4 leukemia,> 100 µM
same,TGI,NCI-H226 lung,> 100 µM
same,TGI,NCI-H23 lung,> 100 µM
same,TGI,NCI-H460 lung,> 100 µM
same,TGI,NCI-H522 lung,> 100 µM
same,TGI,NCI/ADR-RES ovarian,> 100 µM
same,TGI,OVCAR-3 ovarian,> 100 µM
same,TGI,OVCAR-4 ovarian,> 100 µM
same,TGI,OVCAR-5 ovarian,> 100 µM
same,TGI,OVCAR-8 ovarian,> 100 µM
same,TGI,PC-3 prostate,> 100 µM
same,TGI,RPMI-8226 leukemia,> 100 µM
same,TGI,RXF 393 renal,> 100 µM
same,TGI,SF-268 CNS,> 100 µM
same,TGI,SF-295 CNS,> 100 µM
same,TGI,SF-539 CNS,> 100 µM
same,TGI,SK-MEL-2 melanoma,> 100 µM
same,TGI,SK-MEL-28 melanoma,> 100 µM
same,TGI,SK-MEL-5 melanoma,> 100 µM
same,TGI,SK-OV-3 ovarian,> 100 µM
same,TGI,SN12C renal,> 100 µM
same,TGI,SNB-19 CNS,> 100 µM
same,TGI,SNB-75 CNS,> 100 µM
same,TGI,SR leukemia,> 100 µM
same,TGI,SW-620 colon,> 100 µM
same,TGI,T-47D breast,> 100 µM
same,TGI,TK-10 renal,> 100 µM
same,TGI,U251 CNS,> 100 µM
same,TGI,UACC-62 melanoma,> 100 µM
same,TGI,UO-31 renal,> 100 µM
CCN(CC)CCCNc1ccc([N+](=O)[O-])c2nc3ccc(OC)cc3c(NCCCN(CC)CC)c12,TGI,786-0 renal,2.76 µM
same,TGI,A549 NSCLC,3.73 µM
same,TGI,CAKI-1 renal,> 10 µM
same,TGI,CCRF-CEM leukemia,7.37 µM
same,TGI,COLO 205 colon,> 10 µM
same,TGI,DU-145 prostate,> 10 µM
same,TGI,EKVX NSCLC,> 10 µM
same,TGI,HCC-2998 colon,3.03 µM
same,TGI,HCT-15 colon,2.79 µM
same,TGI,HL-60(TB) leukemia,1.04 µM
same,TGI,HOP-62 NSCLC,> 10 µM
same,TGI,HT29 colon,3.42 µM
same,TGI,IGROV1 ovarian,> 10 µM
same,TGI,K-562 leukemia,3.75 µM
same,TGI,KM12 colon,3.05 µM
same,TGI,LOX IMVI melanoma,2.69 µM
same,TGI,M14 melanoma,> 10 µM
same,TGI,MALME-3M melanoma,> 10 µM
same,TGI,MCF7 breast,3.56 µM
same,TGI,MDA-MB-231 breast,2.84 µM
same,TGI,MDA-N,> 10 µM
same,TGI,NCI-H23 lung,4.76 µM
same,TGI,OVCAR-8 ovarian,2.7 µM
same,TGI,PC-3 prostate,2.9 µM
same,TGI,RPMI-8226 leukemia,5.81 µM
same,TGI,RXF 393 renal,4.05 µM
same,TGI,SF-268 CNS,> 10 µM
same,TGI,SK-MEL-28 melanoma,> 10 µM
same,TGI,SK-MEL-5 melanoma,> 10 µM
same,TGI,SK-OV-3 ovarian,> 10 µM
same,TGI,SN12C renal,5.89 µM
same,TGI,SNB-75 CNS,> 10 µM
same,TGI,SW-620 colon,3.98 µM
same,TGI,T-47D breast,> 10 µM
same,TGI,TK-10 renal,> 10 µM
same,TGI,UACC-257 melanoma,> 10 µM
same,TGI,UACC-62 melanoma,> 10 µM
